Assay results from patent US11737989B2, “Clevidipine nanoparticles and pharmaceutical compositions thereof” (CHIESI Farmaceutici S.p.A., priority 2014, dated 2023).

How the values were obtained:
[1] = Oxidative degradation of clevidipine: influence of oxygen content in headspace (H324/78); format: physicochemical; details: exposed to ambient light
Excerpt: Nanoparticle formulations with clevidipine (formulation numbers 31, 40 and 42) as well as clevidipine solutions were purged either with nitrogen or compressed air, and exposed to ambient light to determine the effect of head space oxygen on the formation of oxidative degradation product, H324/78.

[2] = in vivo; cited from earlier work
[3] = cited from earlier work

## CCCC(=O)OCOC(=O)C1=C(C)NC(C)=C(C(=O)OC)C1c1cccc(Cl)c1Cl (centres unmarked) [Clevidipine, clevidipine]
[1]; purged with compressed air (Air)
  H324/78 (% Area): 3.06 % Area
[1]; purged with nitrogen (N2)
  H324/78 (% Area): 2.54 % Area
[2]
  Initial phase half-life: about one minute
[3]
  Solubility in lipids: moderate
  Solubility in water: negligible
